{"source": "patent US20020082193A1", "about": "“Inhibition of mitochondrial calcium/sodium antiporter” (priority 2000, published 2002)", "key": {"[1]": {"target": "T1, mitochondrial calcium/sodium antiporter (Rattus norvegicus, UniProt Q6AXS0)", "T1 construct": "endogenous in cells; host or cells: INS-1 rat insulinoma cells, digitonin-permeabilized", "T1 sequence (Q6AXS0 27-585)": "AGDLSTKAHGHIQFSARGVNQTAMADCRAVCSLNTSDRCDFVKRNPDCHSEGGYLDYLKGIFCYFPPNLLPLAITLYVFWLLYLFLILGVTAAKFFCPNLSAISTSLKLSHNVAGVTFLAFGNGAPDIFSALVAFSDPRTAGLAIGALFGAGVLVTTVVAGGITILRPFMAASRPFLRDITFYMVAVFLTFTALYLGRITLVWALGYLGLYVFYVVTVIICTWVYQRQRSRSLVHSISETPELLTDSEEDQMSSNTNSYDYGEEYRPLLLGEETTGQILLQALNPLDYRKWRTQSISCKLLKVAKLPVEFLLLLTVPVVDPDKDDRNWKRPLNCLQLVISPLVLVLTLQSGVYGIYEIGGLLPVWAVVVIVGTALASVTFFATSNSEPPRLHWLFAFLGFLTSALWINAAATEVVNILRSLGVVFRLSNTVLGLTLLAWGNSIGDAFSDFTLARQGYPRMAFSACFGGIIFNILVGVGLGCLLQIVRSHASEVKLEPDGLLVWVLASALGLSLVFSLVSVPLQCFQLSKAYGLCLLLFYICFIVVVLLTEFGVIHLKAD", "test": "Inhibition of mitochondrial calcium/sodium antiporter activity in digitonin-permeabilized INS-1 cells (calcium green 5N)", "assay_type": "cell-based", "protocol": "INS-1 rat insulinoma cells (see Example 3) were harvested by trypsinization, washed and resuspended at 10×10^6 cells/ml in assay buffer (250 mM sucrose, 10 mM HEPES, 2.5 mM K2HPO4, 5 mM succinate, pH 7.4) containing 0.007% digitonin, 60 μM CaCl2 and 0.05 μM calcium green 5N (Molecular Probes, Inc., Eugene, OR). After a five minute calcium loading incubation, ruthenium red (1 μM; Sigma, St. Louis, MO) was added to block further calcium uptake by mitochondria. Cell suspensions were dispensed into 96-well plates (100 μl per well, 1×10^6 cells per well) and candidate agents (i.e., candidate mitochondrial calcium/sodium antiporter inhibitors) were added to some sets of triplicate wells at concentrations of 1, 10 or 100 μM, while other sets of wells provided appropriate control conditions (e.g., buffer and vehicle controls). Baseline fluorescence measurements were made using a multiwell plate fluorimeter (F-MAX™, Molecular Devices Corp., Sunnyvale, Calif.; or PolarStar , BMG Labtechnologies, Inc., Durham, N.C.) according to the manufacturer's instructions. Calcium efflux from mitochondria was then induced by adding NaCl to all wells to achieve a final concentration of 20 mM, and the rate of change in fluorescence in each well was monitored was monitored for two minutes and quantified using software included with the plate reader."}, "[2]": {"target": "T2, mitochondrial Na+/Ca2+ exchanger (Rattus norvegicus, UniProt Q6AXS0)", "T2 construct": "Rat heart mitochondria were isolated using a modified differential centrifugation protocol; from tissue; host or cells: rat heart mitochondria", "T2 sequence (Q6AXS0 27-585)": "T1 sequence (Q6AXS0 27-585)", "test": "Na+-induced Ca2+ release from mitochondria, Calcium Green 5N fluorescence", "assay_type": "biochemical", "protocol": "(§1) Rat heart mitochondria were isolated using a modified differential centrifugation protocol essentially as described by Sordahl (Methods in Studying Cardiac Membranes (1984), pp 65-74). Experiments to assess effects on transmitochondrial membrane transport of calcium were carried out at 25° C. in a buffer consisting of 250 mM sucrose, 10 mM HEPES (pH 7.4), 5 mM Pi, 5 mM succinate, 1 μM rotenone, supplemented with 1 μM cyclosporine A to prevent interference from the Ca^2+-dependent permeability transition pore (PTP). Ca^2+ uptake and release were measured using a Ca^2+-selective electrode in a custom-constructed chamber additionally equipped for monitoring mitochondrial swelling via changes in light scattering (World Precision Instruments, Inc., Sarasota, Fla.). Alternatively, Ca^2+ fluxes were followed fluorometrically using the Calcium Green 5N™ indicator according to the supplier's recommendations (Molecular Probes, Eugene, Oreg.).\n(§2) Mitochondria (0.5 mg/ml) that were energized by the presence of succinate accumulated endogenous Ca^2+ from the medium (trace calcium from water source). Additional Ca^2+ (20 μM ) was added to the reaction buffer 2-3 minutes following commencement of measurements with the calcium electrode. […] No PTP activation (swelling) was detected under experimental conditions used."}, "[3]": {"tested_on": "pancreatic islets of Langerhans", "test": "Glucose-stimulated insulin secretion (GSIS) by isolated rat islets, insulin ELISA", "assay_type": "cell-based, Sprague-Dawley rats", "details": "1 μM compound", "protocol": "Pancreatic islets of Langerhans were isolated from adult male Sprague-Dawley rats using a standard collagenase infusion and digestion procedure as described in Example 5. Islets were cultured at 37° C. for 1-2 days in CMRL-1066 medium supplemented with 5.5 mM glucose, 10% fetal bovine serum, 100 U/ml penicillin and 100 μg/ml streptomycin, in a humidified atmosphere containing 5% CO2. Islets were manually picked and washed in Krebs Ringer Bicarbonate buffer (KRB: 134 mM NaCl, 4.7 mM KCl, 1.2 mM KH2PO4, 1.2 mM MgSO4, 1 mM CaCl2, 10 mM NaHCO3, pH 7.4) in preparation for measurement of glucose-stimulated insulin secretion (GSIS). Aliquots of washed islets were preincubated in oxygenated KRB supplemented with 16 mM HEPES, 0.01% fetal bovine serum and 5.5 mM glucose for 60 min at 37° C. […] Cell-conditioned media samples were then collected by centrifugation and their insulin content was determined using enzyme-linked immunosorbent assay (ELISA) kits (CrystalChem or ALPCO rat insulin ELISA) according to the kit supplier's instructions. Following treatment with a preferred compound, the concentration of insulin detected in the islet-conditioned medium was at least 1.5 times the insulin concentration detected in the medium conditioned by islets that were exposed to 8 mM glucose. […]"}, "[4]": {"tested_on": "INS-1 rat insulinoma cells", "test": "Insulin secretion by INS-1 cells, basal or 8 mM glucose (radioimmunoassay)", "assay_type": "cell-based", "details": "15, 30 or 60 minutes, FIG. 2", "protocol": "INS-1 rat insulinoma cells were provided by Prof. Claes Wollheim, , Geneva, Switzerland, and cultured at 37° C. in a humidified […] (Gibco BRL, Gaithersburg, Md.) fetal bovine serum (Irvine Scientific, Irvine, Calif.), 2 mM […], 100 U/ml streptomycin, 10 mM HEPES, 1 mM sodium pyruvate and 50 μM β-mercaptoethanol (all reagents Sigma, St. Louis, Mo., unless otherwise noted).\nINS-1 cells were seeded into 24-well plates containing RPMI media supplemented at 0.5×10^6 cells/well and cultured at 37° C., 5% CO2 for 2 days. Cells at or near confluence (0.7×10^6cells/well) were rinsed with glucose-free KRH buffer (134 mM NaCl, 4.7 mM KCl, 1.2 mM KH2PO4, 1.2 mM MgSO4, 1.0 mM CaCl2, 10 mM HEPES-ph 7.4, 25 mM NaHCO3, 0.5% BSA), then incubated in the same buffer for 1 hr at 37° C. in a humidified 5% CO2/95% air atmosphere. […] Insulin concentrations in the supernatants were measured and normalized to cell number using an insulin-specific radioimmunoassay kit (ICN Biochemicals, Irvine, Calif.) according to the manufacturer's instructions. […]"}, "[5]": {"tested_on": "rat pancreatic islet cells", "test": "Insulin secretion by rat pancreatic islet cells, 5 mM or 8 mM glucose (FIG. 3)", "assay_type": "cell-based", "details": "various concentrations"}, "[6]": {"tested_on": "mitochondrial calcium/sodium antiporter (MCA) from beef heart mitochondria", "test": "Sodium-calcium exchange in proteoliposomes reconstituted with affinity isolated MCA", "assay_type": "biochemical", "details": "100 μM calcium chloride, FIG. 8", "protocol": "From a separate preparation of beef heart mitochondria, affinity isolation of the MCA was performed as just described, except that 1% CHAPS was substituted for 1% Triton X-100 in the initial solubilization, and following the column wash steps, retained components (including proteins bound to the affinity matrix) were eluted with 50 mM diltiazem. The column eluate containing proteins was incorporated into proteoliposomes essentially as described by Li et al (1992 J. Biol. Chem. 267: 17983-17989), using Calcium Green SN as the internal fluorescent probe (Molecular Probes, Eugene, OR), and calcium transport activity of the MCA was measured essentially as described by Li et al. (1992). Briefly, calcium chloride (100 μM) was added to a suspension of Calcium Green 5N-loaded proteoliposomes to initiate sodium-calcium exchange, which was measured as an increase in fluorescence as the calcium entered the vesicles that contained Calcium Green 5N. […] Data points in FIG. 8 represent average values at each concentration from two independent experiments."}, "[7]": {"target": "T2, mitochondrial Na+/Ca2+ exchanger", "test": "Na+-induced Ca2+ release from rat heart mitochondria, Ca2+-selective electrode", "assay_type": "biochemical", "details": "20 μM compound", "protocol": "as §1, §2"}}, "note": "Where two headings read alike, the source gives them in different places.", "data": [{"smiles": "Cc1ccccc1C1OCC(=O)Nc2ccc(Cl)cc21", "note": "(stereo not drawn) [compound 10]", "values": [{"measurement": "IC50", "setting": "[1]", "result": "< 100", "unit": "µM"}]}, {"smiles": "O=C(O)CN1C(=O)CSC(c2ccccc2Cl)c2cc(Cl)ccc21", "note": "(stereo not drawn) [Compound No. 2]", "values": [{"measurement": "concentrations at which inhibition was observed", "setting": "[2]", "result": "≥ 100", "unit": "µM"}]}, {"smiles": "Cc1ccc(C2SCC(=O)Nc3ccc(Cl)cc32)c(C)c1", "note": "(stereo not drawn) [compound 21]", "values": [{"measurement": "IC50", "setting": "[1]", "result": "< 100", "unit": "µM"}]}, {"smiles": "O=C1CSC(c2ccccc2Cl)c2ccccc2N1", "note": "(stereo not drawn) [compound 23]", "values": [{"measurement": "IC50", "setting": "[1]", "result": "< 100", "unit": "µM"}]}, {"smiles": "O=C1C[S+]([O-])C(c2ccccc2Cl)c2cc(Cl)ccc2N1", "note": "(stereo not drawn) [Compound No. 24]", "values": [{"measurement": "IC50", "setting": "[1]; permeabilized INS-1 cells, 20 mM NaCl-induced calcium efflux, read-out: IC50, MCA inhibition", "result": "< 100", "unit": "µM"}, {"measurement": "stimulation of GSIS relative to GSIS detected with 8 mM glucose", "setting": "[3]", "result": 178, "unit": "%"}]}, {"smiles": "O=C1CSC(c2ccccc2Cl)c2cc(Cl)ccc2N1", "note": "(stereo not drawn) [Compound No. 1, 7-chloro-5-(2-chlorophenyl)-1,5-dihydro-4,1-benzothiazepin-2-one]", "values": [{"measurement": "glucose stimulated insulin secretion by INS-1 cells", "setting": "[4]", "result": "enhanced"}, {"measurement": "glucose stimulated insulin secretion by rat islets", "setting": "[5]", "result": "enhancement"}, {"measurement": "inhibition of sodium-calcium exchange activity", "setting": "[6]", "result": "inhibited in a dose-dependent fashion"}, {"measurement": "inhibition at 20 µM", "setting": "[7]", "result": "~50", "unit": "%"}, {"measurement": "inhibition of Na+-induced rapid Ca2+ release", "setting": "[7]; FIG. 4", "result": "inhibited completely"}, {"measurement": "stimulation of GSIS relative to GSIS detected with 8 mM glucose", "setting": "[3]", "result": "222 (±48) %"}]}]}
